From patent US8946436B2, “Oxazolidinone compounds and their uses in preparation of antibiotics” (Sichuan Gooddoctor Pharmaceutical Group Co., Ltd., priority 2011, dated 2015) come the findings set out here.

Values after ≈ are worked out from the molar mass of the structure shown. Where two headings read alike, the source gives them in different places.

In one experiment the test system is S. pneumoniae. Briefly: In vitro antibacterial activity (MIC), S. pneumoniae. To be noted: S. pneumoniae (10 strains). The format is cell-based. How it is done:
The test strain was inoculated into the liquid medium and cultured at 37° C. for 16-18 h. The culture liquid and MH medium were put into two blank wells of a 96-well plate, respectively. Then, the absorptions thereof were measured by a Microplate reader. The difference between the absorption values of the culture liquid and MH medium is the adsorption of the bacteria. The concentration of the culture liquid can be calculated according to the formula of 1OD=50 million CFU/mL. The culture liquid was diluted with the MH bouillon culture medium to 5000 CFU/mL for further use.
Compounds 12a, 13 and 14 were dissolved in DMSO to 1 mg/mL, and then filtered with a 0.22 μm filter to obtain the compound solutions. And then they were gradually diluted to a desired concentration (10× final concentration) with the liquid medium, so as to obtain a series of dilutions. The final concentration grade of the dilutions of each tested compound consists of 14 concentrations, which includes: 0.03125 μg/mL, […], 0.125 μg/mL, 0.25 μg/mL, […], 1 μg/mL, 2 μg/mL, 4 μg/mL, 8 μg/mL, 16 μg/mL, 32 μg/mL, 64 μg/mL, 128 μg/mL and 256 μg/mL.
10 μL of each of the compound dilutions above was added into a well of a 96-well plate. 90 μL of the culture liquid (5000 CFU/mL) was added into each of the wells, respectively, mixed with the dilutions to render the tested compound concentration to the final concentration. The resulted mixture was incubated at 37° C. for 16-18 h, and then the OD630 thereof was measured. A culture liquid free of the tested compounds is used as a blank control, and three parallel tests with the same concentration of each compound were performed. The minimum inhibitory concentration (MIC) of each compound on the standard strain of Staphylococcus Aureus and other test strains was determined. Specifically, among the culture liquid contained in the wells of the micro-plate, the first three lowest concentrations under which growth of the test strains could be observed were chose for further evaluation of the MIC. A culture liquid free of tested compounds was used as a blank control. Each of the culture liquids was homogenized independently, and then was diluted with a sterile saline. Each of the diluted culture liquids was plated onto a MH bouillon plate and incubated at 37° C. for 20 h in incubator. After the incubation, the number of the colonies on each plate was counted. As compared with the blank control group, the lowest concentration of each of the test compound groups, at which 80% reduction in the colony number of the strains was achieved, was recorded as the MIC.

A further experiment has as its system PSSP. Briefly: MIC against clinically isolated strains, PSSP. The arrangement: MICmode / MICrange: unit not given here. The class given is cell-based, penicillin sensitive Streptococcus pneumoniae. The text has this:
(§1) Standard strains, including Staphylococcus aureus ATCC29213, S. pneumoniae ATCC49619, E. faecalis ATCC29212, are all available from the American Type Culture Collection.
(§2) Clinically isolated strains: There are total 120 clinical strains of gram-positive bacterium including: 37 strains of Staphylococcus aureus (consisting of 14 strains of methicillin sensitive Staphylococcus aureus MSSA and 23 strains of methicillin resistant Staphylococcus aureus MRSA); 27 strains of Streptococcus pneumoniae (consisting of 13 strains of penicillin sensitive Streptococcus pneumoniae PSSP and 14 strains of penicillin insensitive or resistant Streptococcus pneumoniae PISP+PRSP); 15 strains of Streptococcus pyogenes; 17 strains of Streptococcus agalactiae; 24 stains of Enterococcus faecium (consisting of 12 strains of vancomycin sensitive Enterococcus faecium and 12 strains of vancomycin resistant Enterococcus faecium).
(§3) (2) Tested compounds: Compound 13f was prepared by the methods above, with potency of over 98%; Linezolid was purchased from Pfizer, with potency of 100%.
(§4) Staphylococcus and Enterococcus faecium were incubated in Mueller-Hinton agar medium (MHA medium) at 35° C. for 16-20 h; S. pneumoniae was incubated in Cation-Adjusted Mueller-Hinton Broth medium (CAMHB medium) supplemented with 2.5-5.5% (v/v) lysed horse blood (LHB) at 35° C. for 20-24 h; and Streptococcus were incubated in sheep blood-containing medium (prepared by addition of 5% defibrinated sheep blood into MHA media) at 35° C. for 20-24 h in 5% CO2 environment (CO2 incubator). Before test of the compound activity, each stock of the bacteria strains was activated and colonized in the following manner: the stock was transferred and cultured in a liquid culture medium, the culture liquid was smeared onto an agar plate with an inoculating loop to obtain bacterial colonies on the plate after incubation, and then a colony of the bacteria was chose to be suspended into the liquid culture medium for performing the test of compound activity. As a result, fresh bacteria cells were applied to the test. The standard strains were used as sensitive bacterium to control the quality of the experiments, and a plate or tube containing no antibacterial compounds is used as a blank control for the growth of test strains.
(§5) The minimal inhibitory concentration (MIC) of the test compounds on the strains of Streptococcus pneumoniae was determined by a standard broth macrodilution method, while the MIC of the test compounds on the other bacteria stains was determined by standard agar double dilution methods. […] The MIC of the test compound to each strain of the bacteria was determined.

Another experiment has as its system PNSP. Briefly: MIC against clinically isolated strains, PNSP. The format is cell-based, penicillin insensitive or resistant Streptococcus pneumoniae. Details: MICmode / MICrange: unit not given here. To be noted: PNSP (14 grains).
Excerpt: as §1, §2, §3, §4, §5

The test system of a further experiment is Streptococcus agalactiae. Briefly: MIC against clinically isolated strains, Streptococcus agalactiae. The class given is cell-based. To be noted: Streptococcus agalactiae (17 strains).
Excerpt: as §1, §2, §3, §4
(§6) The minimal inhibitory concentration (MIC) of the test compounds on the strains of Streptococcus pneumoniae was determined by a standard broth macrodilution method, while the MIC of the test compounds on the other bacteria stains was determined by standard agar double dilution methods. The concentration of the test compounds was in the range of 32 mg/L-0.016 mg/L. The bacterial suspensions to be tested were inoculated by a multipoint inoculator, and the inoculation amount at each point is 10^4 CFU. The MIC of the test compound to each strain of the bacteria was determined.

Another experiment concerns VSE. In words: Minimum bactericidal concentration (MBC) test, VSE. The format is cell-based, vancomycin sensitive Enterococcus faecium. How it is done:
as §4, §6
(§7) The MBC was determined by a tube double dilution method. Solutions of the test compounds was prepared and serially diluted. Each of the solutions was mixed with a bacterium suspension (10^6 CFU/mL), and then was incubated at 35° C. overnight. 0.1 mL of the culture supernatant of each tubes was inoculated on a plate containing no antibiotics, and then incubated at 35° C. for 18 h.

In the next experiment the test system is gram-positive bacteria. In words: MBC test, 10 strains of clinically isolated gram-positive bacteria. The class given is cell-based. How it is done: In order to investigate whether the antibacterial activity of Compound 13f is bacteriostatic or bactericidal to gram-positive bacteria, we tested its MBC on 10 strains of gram-positive bacteria (established by clinical isolation), results as shown in Table 4.
as §7

[1] abbreviates: Streptococcus pneumoniae, PSSP (13 strains).
Where [2] appears, read: Enterococcus faecium, strain 09D263, VSE.

As a reminder, the MIC is the least concentration at which growth counts as inhibited. The MIC50 is an inhibitory concentration at the 50% level, which refers to growth in some studies and to a panel of isolates in others. What is called MIC90 is the lowest concentration that inhibits either 90% of growth or 90% of the strains tested, depending on the study. The term MBC denotes the smallest concentration meeting the test's criterion for killing. On to `CC(=O)NC[C@H]1CN(c2ccc(-n3cc(-c4ccccn4)cn3)c(F)c2)C(=O)O1` [Compound 13f, (S)-N-((3-(3-fluoro-4-(4-(pyridin-2-yl)-1H-pyrazol-1-yl)phenyl)-2-oxooxazolidin-5-yl)methyl)acetamide], for which the MIC in the experiment on S. pneumoniae (Streptococcus pneumoniae, read-out: MIC) was 250 to 1000 ng/mL (≈ 632 to 2530 nM); with VSE (setting [2]), 4 ng/mL (≈ 10.1 nM). For the same compound, the MICrange is 0.5-1 with PSSP (PSSP (13 grains)), 0.5-1 in the experiment with PNSP and 0.5 to 1 µg/L in the experiment on Streptococcus agalactiae. The MICmode in the experiment on PSSP (PSSP (13 strains)) is 1; against PNSP, 0.5; in the experiment on Streptococcus agalactiae, 1 µg/L. Moreover, the MIC50 was found to be 1 ng/mL (≈ 2.53 nM) in the experiment on PSSP (setting [1]) and 0.5 ng/mL (≈ 1.26 nM) against PNSP (Streptococcus pneumoniae). For the same compound, the MIC90 against PSSP (setting [1]) and against PNSP (Streptococcus pneumoniae) was 1 ng/mL (≈ 2.53 nM) throughout. This compound also registered an MBC against VSE (setting [2]) of 8 ng/mL (≈ 20.2 nM). For the same compound, the MBC/MIC with VSE (strain 09D263, VSE) came out at 2; in the experiment with VSE (strain 09H202, VSE), 2. The same compound had an MBC value with VSE (strain 09H202, VSE) of 8 ng/mL (≈ 20.2 nM). Moreover, in the experiment with VSE (strain 09H202, VSE), the MIC value was determined as 4 ng/mL (≈ 10.1 nM). The MBC/MIC ratio in the experiment on gram-positive bacteria (3 of 4 tested strains of E. faecalis) came to 4. Further, the “ratio of MBC/MIC” value in the experiment with gram-positive bacteria (Staphylococcus sp. and Streptococcus pneumoniae) is recorded as 1-2; with gram-positive bacteria (all the 10 tested strains) it was at most 4. In addition, the bacteriostatic or bactericidal entry in the experiment on gram-positive bacteria (all the 10 tested strains, MBC/MIC ≦4) is “bactericidal effect”.
In the experiment with S. pneumoniae, `CC(=O)NC[C@H]1CN(c2ccc(N3CCOCC3)c(F)c2)C(=O)O1` [Linezolid, reference compound] returned an MIC of 2000 to 32000 ng/mL. In the experiment with Streptococcus agalactiae, this compound gave an MIC50 of 1 ng/mL (≈ 2.96 nM), an MIC90 of 1 ng/mL (≈ 2.96 nM), an MICmode of 1 µg/L and an MICrange of 0.5 to 1 µg/L.
